From ChEMBL document CHEMBL1770138, “Synthesis and SAR of pyrimidine-based, non-nucleotide P2Y14 receptor antagonists” (Bioorg Med Chem Lett, 2011) come the findings set out here.

Data set [1] is described as follows: in vivo. The note with it: C57B6, mouse, po, 50 mg/kg.
Data set [2] in a line: in vivo. The note with it: C57B6, mouse, po, 50 mg/kg. This is another data set of the same source.
Data set [3] can be described thus: in vivo. The note with it: C57B6, mouse.
Data set [4] can be described thus: Drug uptake in plasma of C57B6 mouse after 24 hrs. It counts as ADME. The note with it: read-out: Drug uptake.
A short description of data set [5]: in vivo. The note with it: C57B6, mouse, iv, 5 mg/kg.
Data set [6] can be described thus: in vivo. The note with it: C57B6, mouse, iv, 5 mg/kg. The source holds these as a separate data set.

In the case of `CCc1cccc(NC(=O)N2CCc3nc(-c4ccc5c(c4)OCO5)nc(-c4ccccc4C)c3C2)c1`, in “in vivo [1]”, the bioavailability came to 134%. In “in vivo [2]”, the peak concentration (Cmax) (as a rule, the maximum level reached in the sampled fluid or tissue) was found to be 2400 nM. Besides, the half-life (as a rule, the time in which the quantity being followed falls by half) in the data set “in vivo [3]” is 11 h. The concentration at 24 h in data set [4] is 400 nM. Besides, the clearance (as a rule, a measure of how efficiently the substance is removed, as volume per time) in “in vivo [5]” was determined as 48 mL/min/kg. For the same molecule, the Vd – broadly, a proportionality between amount in the body and measured concentration, not a real space – in the data set “in vivo [6]” turned out to be 19 L/kg.
